Reference: patent publication US4218562A, “Antibiotic derivatives of XK-62-2” (Abbott Laboratories, priority 1978, dated 1980)
≈ marks a conversion by molar mass, not a printed value.

Experiments:
Assay type in all cases: cell-based
[1] = test system: strains of Escherichia coli having an R factor; assay: Anti-bacterial activity against Escherichia coli having an R factor; conditions: E. coli having an R factor which shows resistance to known aminoglycoside antibiotics
Escherichia coli KY 8327 = assay: Agar dilution MIC, pH 8.0: Escherichia coli KY 8327; conditions: for MIC: Escherichia coli, KY8327, agar-dilution method, pH 8.0, strain produces gentamicin adenyltransferase, read-out: Minimum Inhibitory Concentration; for anti-bacterial activity: comparison of MIC in Table 1, E. coli KY 8327
Description: (§1) The former bacterium inactivates kanamycins and gentamicins by adenylation, and the latter inactivates gentamicins by acetylation.

Escherichia coli ATCC 26 = assay: Agar dilution MIC, pH 8.0: Escherichia coli ATCC 26; conditions: ATCC26, agar-dilution method, pH 8.0, read-out: Minimum Inhibitory Concentration
[2] = test system: Salmanella typhosa ATCC 9992; assay: microbe, parasite or virus in culture; conditions: agar-dilution method, pH 8.0; read-out: Minimum Inhibitory Concentration
[3] = test system: Proteus vulgaris ATCC 6897; assay: Agar dilution MIC, pH 8.0: Proteus vulgaris ATCC 6897; conditions: ATCC6897, agar-dilution method, pH 8.0, read-out: Minimum Inhibitory Concentration
[4] = test system: Krobsiella pneumoniae ATCC 10081; assay: Agar dilution MIC, pH 8.0: Krobsiella pneumoniae ATCC 10081; conditions: agar-dilution method, pH 8.0; read-out: Minimum Inhibitory Concentration
[5] = test system: Shigella seanei ATCC 9250; assay: microbe, parasite or virus in culture; conditions: ATCC9250, agar-dilution method, pH 8.0, read-out: Minimum Inhibitory Concentration
[6] = test system: Staphylococcus aureus ATCC 6538P; assay: Agar dilution MIC, pH 8.0: Staphylococcus aureus ATCC 6538P; conditions: ATCC6538P, agar-dilution method, pH 8.0, read-out: Minimum Inhibitory Concentration
[7] = test system: Bacillus subtilis No. 10707; assay: Agar dilution MIC, pH 8.0: Bacillus subtilis No. 10707; conditions: NO.10707, agar-dilution method, pH 8.0, read-out: Minimum Inhibitory Concentration
[8] = test system: Pseudomanas aeruginosa BMH 1; assay: Agar dilution MIC, pH 8.0: Pseudomonas aeruginosa BMH 1; conditions: BMH1, agar-dilution method, pH 8.0, read-out: Minimum Inhibitory Concentration
Escherichia coli KY 8348 = assay: Agar dilution MIC, pH 8.0: Escherichia coli KY 8348; conditions: for MIC: Escherichia coli, KY8348, agar-dilution method, pH 8.0, strain produces gentamicin acetyltransferase Type I, read-out: Minimum Inhibitory Concentration; for anti-bacterial activity: comparison of MIC in Table 1, E. coli KY 8348
Description: as §1

Sarcina lucca ATCC 9341 = assay: Agar dilution MIC, pH 7.2: Sarcina lucca ATCC 9341; conditions: ATCC9341, pH 7.2, read-out: Minimum Inhibitory Concentration
[9] = test system: various bacteria having a resistance to at least one of gentamicin antibiotics and XK-62-2; assay: Antibacterial activity against resistant bacteria (summary of Table 2); conditions: bacteria producing gentamicin adenyltransferase and/or gentamicin acetyltransferase Type I and Type II; from Table 2
[10] = test system: Pseudomonas aeruginosa BMH No. 1; assay: Agar dilution MIC, pH 7.2: Pseudomonas aeruginosa BMH No. 1; conditions: BMHNO.1, agar dilution method, pH 7.2, read-out: Minimum Inhibitory Concentration
[11] = test system: Bacillus subtillus ATCC 6688; assay: Agar dilution MIC, pH 7.2: Bacillus subtillus ATCC 6688; conditions: ATCC6688, agar dilution method, pH 7.2, read-out: Minimum Inhibitory Concentration

CNC[C@@H]1CC[C@@H](NC(=O)[C@@H](O)CCN)[C@@H](O[C@H]2[C@H](O)[C@@H](O[C@H]3OC[C@](C)(O)[C@H](NC)[C@H]3O)[C@H](N)C[C@@H]2N)O1 [Compound I, 2'-N-[L-(-)-α-hydroxy-γ-aminobutyryl]XK-62-2]
anti-bacterial activity [1]: strong anti-bacterial activity | MIC (Escherichia coli KY 8327): 3.1 µg/mL (≈ 5.49 µM) | anti-bacterial activity (Escherichia coli KY 8327): strong anti-bacterial activity | MIC (Escherichia coli ATCC 26): 0.39 µg/mL (≈ 0.691 µM) | MIC [2]: 0.2 µg/mL (≈ 0.354 µM) | MIC [3]: 0.39 µg/mL (≈ 0.691 µM) | MIC [4]: 0.1 µg/mL (≈ 0.177 µM) | MIC [5]: 0.39 µg/mL (≈ 0.691 µM) | MIC [6]: 0.05 µg/mL (≈ 0.0885 µM) | MIC [7]: 0.05 µg/mL (≈ 0.0885 µM) | MIC [8]: 25 µg/mL (≈ 44.3 µM) | MIC (Escherichia coli KY 8348): 0.05 µg/mL (≈ 0.0885 µM) | anti-bacterial activity (Escherichia coli KY 8348): strong anti-bacterial activity

CNC[C@@H]1CC[C@@H](N)[C@@H](O[C@H]2[C@H](O)[C@@H](O[C@H]3OC[C@](C)(O)[C@H](NC)[C@H]3O)[C@H](NC(=O)[C@@H](O)CCN)C[C@@H]2N)O1 [Compound II, 1-N-[L-(-)-α-hydroxy-γ-aminobutyryl]XK-62-2]
anti-bacterial activity [1]: strong anti-bacterial activity | MIC (Escherichia coli KY 8327): 0.016 µg/mL (≈ 0.0283 µM) | anti-bacterial activity (Escherichia coli KY 8327): strong anti-bacterial activity | MIC (Sarcina lucca ATCC 9341): 0.4 µg/mL (≈ 0.708 µM) | antibacterial activity [9]: very strong antibacterial activity | MIC [3]: 0.065 µg/mL (≈ 0.115 µM) | MIC [4]: 0.008 µg/mL (≈ 0.0142 µM) | MIC [10]: 1.56 µg/mL (≈ 2.76 µM) | MIC [11]: 0.1 µg/mL (≈ 0.177 µM) | MIC [6]: 0.016 µg/mL (≈ 0.0283 µM) | anti-bacterial activity (Escherichia coli KY 8348): strong anti-bacterial activity

CNC[C@@H]1CC[C@@H](NC(=O)[C@@H](O)CCN)[C@@H](O[C@H]2[C@H](O)[C@@H](O[C@H]3OC[C@](C)(O)[C@H](NC)[C@H]3O)[C@H](NC(=O)[C@@H](O)CCN)C[C@@H]2N)O1 [III, 1-N-2'-N-bis-[L-(-)-α-hydroxy-γ-aminobutyryl]XK -62-2]
anti-bacterial activity [1]: strong anti-bacterial activity | MIC (Escherichia coli KY 8327): 0.065 µg/mL (≈ 0.0976 µM) | anti-bacterial activity (Escherichia coli KY 8327): strong anti-bacterial activity | MIC (Escherichia coli ATCC 26): 0.065 µg/mL (≈ 0.0976 µM) | MIC [3]: 0.521 µg/mL (≈ 0.783 µM) | MIC [4]: 0.065 µg/mL (≈ 0.0976 µM) | MIC [5]: 0.26 µg/mL (≈ 0.391 µM) | MIC [6]: 0.065 µg/mL (≈ 0.0976 µM) | MIC [7]: 0.008 µg/mL (≈ 0.012 µM) | MIC [8]: 8.34 µg/mL (≈ 12.5 µM) | MIC (Escherichia coli KY 8348): 0.065 µg/mL (≈ 0.0976 µM) | anti-bacterial activity (Escherichia coli KY 8348): strong anti-bacterial activity
